Experimental data taken from patent publication EP0605261B1, “Use of a flavone derivative as taste modifier and a method of modifying taste” (SAN-EI GEN F.F.I., INC., priority 1992, dated 1994).

Legend:
Assay type in all cases: in vivo
[1] = Five points evaluation test: saltiness and savor modifying effect (toothpaste containing salt); conditions: average points of 5 panellers (2: no changes)
Protocol: Compound 7 of the flavone derivative (I) was used as a taste modifier. To commercially available toothpaste (containing salt), the flavone derivative (I) was added in the amount of 1, 0.1 and 0.01 ppm respectively to prepare samples. Sensory tests were carried out for modifying effects of the saltiness and the savor of toothpaste. Flavone derivative (I) free toothpaste was used as a standard substance.
The sensory tests were conducted by 5 trained panellers to examine saltiness modifying effect (so called saltiness adapting effect) and savor modifying effect.
Each sample solution was evaluated assuming that the standard solution has the point of 2.

[2] = Sensory test (limiting method): enhancing the sourness of acid sugar solution; set-up: key: (equivalent citric acid content / citric acid content with flavone) × 100; conditions: citric acid 1.000 (g), flavone derivative (I) 0.00001 (g), 8 panellers; for Value of enhancing the sourness Ascending system: ascending system (from low concentration); for Value of enhancing the sourness Descending system: descending system (from high concentration)
Protocol: Compounds 1 to 11 of the flavone derivative (I) were used as a taste modifier to prepare acid sugar solution having compositions as follows:
As a control, 21 types of acid sugar solutions are used. In the control, the flavone derivative (I) is removed from the above composition and the content of citric acid is varied from 1.000 g to 1.500 g by 0.025 g.
Sensory tests were carried out by 8 trained panellers in accordance with a limiting method described in the Hand Book of Sensory evaluation, edited by Research Committee of sensory evaluation, Union of Japanese Scientists and Engineers, p.398 (1973) in use of acid sugar solutions containing respective flavone derivatives (I) and another acid sugar solutions having a various content of citric acid.
As for the content of citric acid, two types sensory tests were conducted, one was an ascending system (testing from solution with low concentration) and another was a descending system (testing from solution with high concentration).
The sensory evaluation was made by a value of enhancing the sourness. The value of enhancing the sourness was calculated by the following formula based on the content of citric acid in acid sugar solutions with varied concentration of citric acid, which has an equivalent stimulation with an acid sugar solution containing the flavone derivative (I) Value of enhancing the sourness = (content of citric acid in acid sugar solution sensed as an equivalent stimulation/content of citric acid in acid sugar solution containing the flavone derivative (I)) x 100 [formula]

[3] = Sensory test: savor (boiled fish paste); conditions: 1.5 w/w% glycine, 0.0001 w/w%, 10 panellers
Protocol: Compound 7 of the flavone derivative (I) was used as a taste modifier. In accordance with a general method, boiled fish paste containing 0.0001 w/w% of the flavone derivative (I) and flavone derivative (I) free boiled fish paste were prepared in use of 1.5 w/w% glycine. Sensory tests for the savor were conducted by 10 panellers comprised of 6 males and 4 females at the age from 20 to 40.

[4] = Sensory test: savor (hard candy); conditions: hard candy with Aspartame; 0.0001 w/w%; 10 panellers
Protocol: Compound 10 of the flavone derivative (I) was used as a taste modifier, and 22.5 w/w% thick malt syrup of reducing maltose, 22.5 w/w% reducing starch saccharide and 0.08 w/w% of Aspartame were used as sweetening agents. In accordance with a general method, hard candy containing 0.0001 w/w% of the flavone derivative (I) and flavone derivative (I) free hard candy were prepared. Sensory tests for the savor were conducted by 10 panellers comprised of 6 males and 4 females at the age from 20 to 40.

SMILES	Saltiness and Savor Modifying Effect: Saltiness ([1]; 0.01 ppm)	Saltiness and Savor Modifying Effect: Savor ([1]; 0.01 ppm)	Saltiness and Savor Modifying Effect: Saltiness ([1]; 0.10 ppm)	Saltiness and Savor Modifying Effect: Savor ([1]; 0.10 ppm)	Saltiness and Savor Modifying Effect: Saltiness ([1]; 1.00 ppm)	Saltiness and Savor Modifying Effect: Savor ([1]; 1.00 ppm)	Value of enhancing the sourness Ascending system [2]	Value of enhancing the sourness Descending system [2]	the savor, as sensed by all the panellers [3]	the savor, as sensed by all the panellers [4]
COc1ccc(-c2oc3c(OC)c(OC)cc(OC)c3c(=O)c2OC)cc1OC [Compound 7, 3,3',4',5,7,8-hexamethoxyflavone]	2.2	2.2	2.6	2.4	3.4	3.0	116	119	better than that of the control	
COc1ccc(-c2cc(=O)c3c(O)c(OC)c(OC)c(OC)c3o2)cc1OC [Compound 10, 5-hydroxy-3',4',6,7,8-pentamethoxyflavone]							120	123		better than that of the control
